Assay results published in patent publication US12466820B2, “Amino quinazoline derivatives as P2X3 inhibitors” (CHIESI FARMACEUTICI S.p.A., priority 2019, dated 2025).
Where a name gives a salt, the structure may show the parent alone.

Target: T1, h P2X3 (Homo sapiens, UniProt P56373)
T1 sequence (P56373 1-397): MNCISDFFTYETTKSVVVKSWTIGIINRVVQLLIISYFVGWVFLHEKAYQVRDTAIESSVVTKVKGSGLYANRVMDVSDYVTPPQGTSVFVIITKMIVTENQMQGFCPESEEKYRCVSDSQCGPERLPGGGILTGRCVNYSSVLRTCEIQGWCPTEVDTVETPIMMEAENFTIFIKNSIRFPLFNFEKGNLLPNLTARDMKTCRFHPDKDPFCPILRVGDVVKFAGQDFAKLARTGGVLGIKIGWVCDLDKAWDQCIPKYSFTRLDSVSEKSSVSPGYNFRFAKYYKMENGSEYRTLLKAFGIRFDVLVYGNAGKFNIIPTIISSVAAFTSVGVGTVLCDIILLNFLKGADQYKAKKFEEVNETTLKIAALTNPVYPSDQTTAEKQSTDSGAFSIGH
Assay: In vitro electrophysiology assay for P2X3 (automated whole-cell patch clamp, Sophion Qube)
Assay type: cell-based
Conditions: range of activity; for IC50: Table 6, inhibition of P2X3 current, agonist α,β-MeATP (800 nM)
Experimental: Pharmacological Activity of the Compounds of the Invention In Vitro Electrophysiology Assay for P2X3
Cells expressing P2X3 receptors were grown according to standard practice and maintained at 37° C. in a 5% humidified CO2 atmosphere. The cells were seeded into T175 flask 2 days prior to the day of the assay and dissociated from the flasks using TrypLE when grown to confluence of 80-90%. The dissociated cells were resuspended in serum free media at a cell density of 3×10^6 cells/ml and loaded onto the Sophion Qube automated patch-clamp system. The extracellular assay buffer contained 145 mM NaCl, 4 mM KCl, 2 mM CaCl2), 1 mM MgCl2, 10 mM HEPES, and 10 mM glucose at pH 7.4. The intracellular assay solution contained 140 mM CsF, 10 mM NaCl, 10 mM EGTA, 10 mM HEPES at pH 7.2. Agonist stock solutions were prepared in H2O and diluted in bath solution prior to use. All antagonists were prepared as 10 mM stock solutions in DMSO and diluted in bath solution prior to use. All experiments were performed under the whole-cell patch clamp configuration at room temperature with 384 individual cells being voltage clamped at −60 mV simultaneously on the Sophion Qube instrument. Two baseline responses were established with the application of α,β-MeATP (800 nM), with the subsequent agonist applications being washed out using extracellular assay buffer containing 0.5 U/ml apyrase. Following the second agonist application, antagonist was incubated in the absence of α,β-MeATP for 10 minutes. After antagonist preincubation, 800 nM α,β-MeATP and antagonist were co-administered to determine the inhibitory effect of the antagonist. One concentration of an antagonist was assessed against a single cell, with different concentrations of the antagonist applied to other cells on the 384 recording substrate. The control P2X3 current amplitude was taken from the peak current amplitude from the second agonist response prior to preincubation with antagonist. The peak P2X3 current amplitude in the presence of antagonist was used to calculate the inhibitory effect at each concentration of the antagonist according to the following equation: […]
Concentration-response curves were constructed from ten different concentrations with each concentration of antagonist tested on at least two individual cells. The concentration of the antagonist to inhibit P2X3 current by 50% (IC50) was determined by fitting the data with the following equation: […]
Where ‘a’ is minimum response, ‘b’ is maximum response, ‘c’ is IC50 and ‘d’ is Hill slope.
The results for individual compounds are provided below in Table 6 and are expressed as range of activity.
The activity of the comparative examples A and B have been tested in the in vitro Electrophysiology Assay for P2X3 as described above.

Compound	IC50 [nM]	h P2X3 (inhibition of P2X3 current evoked by 800 nM α,β-MeATP, 10 min antagonist preincubation, comparative examples)
Cc1ccc(CNc2ncnc3c(-c4ccnn4C)cc(-c4ccc(F)cc4)cc23)nn1 [Example 94, 6-(4-fluorophenyl)-8-(2-methylpyrazol-3-yl)-N-[(6-methylpyridazin-3-yl)methyl]quinazolin-4-amine]	316 to 3160	
Cc1cnc(-c2cc(OC3CCOCC3)c3ncnc(NC(C)c4ccc(C)nn4)c3c2)nc1 (single isomer, unassigned) [Example 29, N-[1-(6-methylpyridazin-3-yl)ethyl]-6-(5-methylpyrimidin-2-yl)-8-tetrahydropyran-4-yloxy-quinazolin-4-amine]	316 to 3160	
Cc1ccc(COc2ncnc3ncc(-c4ccc(F)cc4)cc23)cn1 [Comparative Example A, 6-(4-fluorophenyl)-4-[(6-methyl-3-pyridyl)methoxy]pyrido[2,3-d]pyrimidine, reference compound]		inactive
CN1CCC(CNc2ncnc3c(OCC(=O)O)cc(-c4ccc(F)cc4)cc23)CC1 [Example 57, 2-((6-(4-fluorophenyl)-4-(((1-methylpiperidin-4-yl)methyl)amino)quinazolin-8-yl)oxy)acetic Acid Hydrochloride]	316 to 3160	
C[C@@H](Nc1ncnc2c(C3=CCNCC3)cc(-c3ccc(F)cc3)cc12)c1cnc(C(F)(F)F)nc1 [Example 27, (R)-6-(4-fluorophenyl)-8-(1,2,3,6-tetrahydropyridin-4-yl)-N-(1-(2-(trifluoro-methyl)pyrimidin-5-yl)ethyl)quinazolin-4-amine]	< 316	
COc1cc(-n2nccc2C)cc2c(N[C@H](C)c3ccc(C)nn3)ncnc12 [Example 102, (R)-8-methoxy-6-(5-methyl-1H-pyrazol-1-yl)-N-(1-(6-methylpyridazin-3-yl)ethyl)quinazolin-4-amine]	3160 to 31600	
COc1cc(-c2ccn(C)n2)cc2c(NC(C)c3nnc(C)o3)ncnc12 (centres unmarked) [Example 105]	316 to 3160	
C[C@@H](Nc1ncnc2c(OC3CCNC4(CCC4)C3)cc(-c3ccc(F)cc3)cc12)c1cnc(C(F)(F)F)nc1 (stereo partly drawn) [Example 39, 8-(5-azaspiro[3.5]nonan-8-yloxy)-6-(4-fluorophenyl)-N-[(1R)-1-[2-(trifluoromethyl)pyrimidin-5-yl]ethyl]quinazolin-4-amine]	< 316	
C[C@@H](Nc1ncnc2c(OC3CC4CC3CN4)cc(-c3ccc(F)cc3)cc12)c1cnc(C(F)(F)F)nc1 (stereo partly drawn) [Example 41, 8-((2-azabicyclo[2.2.1]heptan-5-yl)oxy)-6-(4-fluorophenyl)-N-((R)-1-(2-(trifluoromethyl)pyrimidin-5-yl)ethyl)quinazolin-4-amine]	< 316	
Cc1ccc([C@@H](C)Nc2ncnc3c(OC4CCOCC4)cc(-c4ccn(C)n4)cc23)nn1 [Example 32, (R)-6-(1-methyl-1H-pyrazol-3-yl)-N-(1-(6-methylpyridazin-3-yl)ethyl)-8-((tetrahydro-2H-pyran-4-yl)oxy)quinazolin-4-amine]	316 to 3160	
Cc1cnc(-c2cc(OC3CCOCC3)c3ncnc(NCc4ccc(C)nn4)c3c2)nc1 [Example 31, N-[(6-methylpyridazin-3-yl)methyl]-6-(5-methylpyrimidin-2-yl)-8-tetrahydropyran-4-yloxy-quinazolin-4-amine]	316 to 3160	
Cc1ccc([C@@H](C)Nc2ncnc3c(OC4CCOCC4)cc(-c4ncc(C)s4)cc23)nn1 [Example 33]	< 316	

Results, then the compound that gave them:

IC50 [nM]	h P2X3 (inhibition of P2X3 current evoked by 800 nM α,β-MeATP, 10 min antagonist preincubation, comparative examples)	Compound
3160 to 31600		COc1cc(C2=CCOCC2)cc2c(NCc3ccc(C)nn3)ncnc12 [Example 188, 6-(3,6-Dihydro-2H-pyran-4-yl)-8-methoxy-N-((6-methylpyridazin-3-yl)methyl)quinazolin-4-amine]
316 to 3160		Cc1cnc(-c2cc(OC3CCOCC3)c3ncnc(NC(C)c4nnc(C)s4)c3c2)s1 (single isomer, unassigned) [Example 171, N-[1-(5-methyl-1,3,4-thiadiazol-2-yl)ethyl]-6-(5-methylthiazol-2-yl)-8-tetrahydropyran-4-yloxy-quinazolin-4-amine]
316 to 3160		COc1cc(-c2ncc(C)cn2)cc2c(NC(C)c3nc(-c4ccncc4)no3)ncnc12 (single isomer, unassigned) [Example 167, 8-methoxy-6-(5-methylpyrimidin-2-yl)-N-(1-(3-(pyridin-4-yl)-1,2,4-oxadiazol-5-yl)ethyl)quinazolin-4-amine]
316 to 3160		COc1cc(-c2ccc(F)cn2)cc2c(NCc3ccn(C)c(=O)c3)ncnc12 [Example 147, 4-(((6-(5-fluoropyridin-2-yl)-8-methoxyquinazolin-4-yl)amino)methyl)-1-methylpyridin-2(1H)-one]
< 316		COc1cc(-c2ncc(C)s2)cc2c(NCc3ccc(F)cn3)ncnc12 [Example 119, N-((5-fluoropyridin-2-yl)methyl)-8-methoxy-6-(5-methylthiazol-2-yl)quinazolin-4-amine]
316 to 3160		COc1cc(-c2ccc(F)cn2)cc2c(NCc3nnc(C)o3)ncnc12 [Example 134, 6-(5-fluoropyridin-2-yl)-8-methoxy-N-((5-methyl-1,3,4-oxadiazol-2-yl)methyl)quinazolin-4-amine]
316 to 3160		COc1cc(-c2ccc(F)cn2)cc2c(NCc3cc(C)on3)ncnc12 [Example 138, 6-(5-fluoro-2-pyridyl)-8-methoxy-N-[(5-methylisoxazol-3-yl)methyl]quinazolin-4-amine]
316 to 3160		COc1cc(-c2ncc(F)cn2)cc2c(NC(C)c3nnc(C)o3)ncnc12 (centres unmarked) [Example 110, 6-(5-fluoropyrimidin-2-yl)-8-methoxy-N-(1-(5-methyl-1,3,4-oxadiazol-2-yl)ethyl)quinazolin-4-amine]
316 to 3160		COc1cc(-c2ccc(F)cn2)cc2c(NC(C)c3ccc(C(F)(F)F)nn3)ncnc12 (single isomer, unassigned) [Example 170, 6-(5-fluoro-2-pyridyl)-8-methoxy-N-[1-[6-(trifluoromethyl)pyridazin-3-yl]ethyl]quinazolin-4-amine]
316 to 3160		COc1cc(-c2ccc(F)cn2)cc2c(NCc3cc[nH]c(=O)c3)ncnc12 [Example 148, 4-(((6-(5-fluoropyridin-2-yl)-8-methoxyquinazolin-4-yl)amino)methyl)pyridin-2(1H)-one]
316 to 3160		COc1cc(-c2ncc(C)s2)cc2c(NC(C)c3nnc(C)s3)ncnc12 (single isomer, unassigned) [Example 164, 8-methoxy-N-(1-(5-methyl-1,3,4-thiadiazol-2-yl)ethyl)-6-(5-methylthiazol-2-yl)quinazolin-4-amine]
